This note sets out measurements from patent US12653887B2, “T cell manufacturing compositions and methods” (priority 2019, dated 2026).

Test [1] relates to CD8+ naïve T cells. In words: CD8+ naïve T cell induction (protocol 1 / protocol 2), pMHC multimer flow cytometry. It counts as cell-based, human. The following applies: for fraction of antigen specific CD8+ T cells (multimer): HD35. How it is done: • DC media (Cellgenix) • CD14 microbeads, human, Miltenyi #130-050-201 • Cytokines and/or growth factors • T cell media (AIM V+RPMI 1640 glutamax+serum+PenStrep) • Peptide stocks—1 mM per peptide (HIV A02—5-10 peptides, HIV B07—5-10 peptides, DOM—4-8 peptides, PIN—6-12 peptides) Procedure: Step 1: Monocyte Isolation for DC Prep • 1. Calculate the approximate number of PBMCs to thaw based on expected DC yield for each donor. • 2. Thaw PBMCs and resuspend at ˜1×10^6-1×10^8 cells/mL in DC media. • 3. Add benzonase (1:1000 dilution) and place in incubator with cap loosened. • 4. Perform CD14^+ monocyte enrichment according to manufacturer protocol. • 5. Plate enriched cells in 6-well plates at 1×10^5-1×10^7 per well in DC media with one or more cytokines and/or growth factors selected from GM-CSF, IL-4, FLT3L, TNF-α, IL-1β, PGE1, IL-6, IL-7, IFN-α, R848, LPS, ss-rna40, and polyI:C. Step 2: Peptide Loading and Maturation • 1. Count DCs and split the cells according to the experimental conditions in 15 mL tubes; 0.01-1 million cells per condition. • 2. Spin @1200 rpm for 5 min and resuspend in 50-400 μL DC medium. Add peptide(s) and place in incubator with loosened cap for 0.5-3 hrs. Volumes were calculated for peptide pools at a concentration of 1 mM per peptide. A volume of each separate pool of A02 (5 peptides) and B07 (5 peptides) was added per well for a final concentration of 0.001-100 μM per peptide. • 3. After 0.5-3 hrs. add 200 μL to 1.5 mL of DC media containing maturation mix and transfer the cells to 24 well plate. The maturation mix contains one or more cytokines selected from GM-CSF, IL-4, FLT3L, TNF-α, IL-1β, PGE1, IL-6, IL-7, IFN-α, R848, LPS, ss-rna40, and polyI:C. Step 3: Setting Up Long Term Stimulation (LTS) Experiment • 1. Carefully remove all media from the wells of the DC plates, transferring each well to a separate well in a 24-well deepwell block. • 2. Wash each well with 0.5-3 mL T cell media and combine with DC media in the deepwell block. • 3. Add 100 μL to 2 mL T cell media to each well. • 4. Spin down DCs at 1200 rpm for 5 min. • 5. Remove all supernatant, resuspend DCs in 100 μL to 2 mL T cell media and transfer back into the correct wells. • 6. Thaw PBMCs in T cell media and resuspend at 0.5×10^6-4×10^6 cells/mL in T cell media with IL-7 and IL-15. • 7. Add 0.5-3 mL of prepared PBMCs to each well. Step 4: Feeding LTS
• AIM V media (Invitrogen) • Media 1 (RPMI 1640 glutamax+serum+PenStrep) • Media 2 (AIM V+RPMI 1640 glutamax+serum+PenStrep) Procedure: • Step 1: Plate 4 million PBMCs in each well of 24 well plate with one or more cytokines in Media 2. The one or more cytokines are selected from GM-CSF, IL-4, FLT3L, TNF-α, IL-1β, PGE1, IL-6, IL-7, IFN-α, R848, LPS, ss-rna40, and polyI:C. • Step 2: Peptide loading and maturation in Media 2 • 1. Make stock peptide pool of interest (except for no peptide condition) at 0.001-100 μM for shortmers and 0.001-100 μM for longmers final concentration in respective wells and mix. • 2. Incubate for 0.5-3 hr. • 3. Make stock maturation cocktail and add to each well after incubation and mix. […]
In general terms: In flow cytometry, cells or beads pass a laser one at a time.

Test [2] has as its target T1, HLA-A02:01 (Homo sapiens, UniProt P04439, D140Y/D185E/D98H/E176V/E277Q/G131W/G231S/I119V/I121R/I166T/I218V/L300P/L318F/N151K/N90K/P208A/P217A/Q86G/Q94H/R138H/R169H/T345S).
T1 construct: endogenous in cells; host or cells: CD25 depleted PBMCs (donor cells)
In words: Epitope presentation after RNA electroporation of CD25 depleted PBMC, HLA immunoprecipitation and LC-MS/MS. It counts as cell-based. The conditions noted are these: over 24 hours. How it is done: CD25 depleted PBMC cells were electroporated with RNA (depicted in FIG. 60C) and cultured over a period of 24 hours. Cells were harvested at the indicated times, pelleted and flash frozen. HLA-A02:01-peptide complexes were immunoprecipitated and then peptides were eluted and analyzed by LC-MS/MS. Peptide eluted from electroporated cells (Light) were compared to heavy labelled standard peptides (Heavy) for positive identification. (FIG. 63A).

Test [3] has as its system CD8+ T cells. In words: RNA nucleofection of differently prepared PBMCs, multimer assay. The conditions noted are these: for Hit Rate (%) / Mean Frequency: immunogen RNA (25 mer epitopes). The test is classed as cell-based, human. How it is done: In this experiment, PBMCs were variously treated for depletion of certain populations and their expansion and multimer specificity was investigated. Yield of multimer specific T cells was tested by nucleofecting three sets of PBMC preparations with RNA constructs: (i) CD25 depleted PBMCs, (ii) CD14 and CD25 depleted PBMCs, (iii) Frozen CD14 and CD25 depleted PBMCs. In preparation (i), T cells were not separated from the APCs during nucleofection like in preparation (ii) and (iii). These were compared with a set of PBMCs loaded with peptides. All cells were treated with FLT3L prior to electroporation. […] It could be possible that less handling of PBMCs before RNA loading step was advantageous. Depletion of multiple cell components in the PBMC population required subjecting the cell population to multiple antibodies, washing steps and recovery steps, which amounts to handling stress for the cells.
CD25 depleted PBMCs had detectable Gli3 specific CD8+ T cells, and ME1 specific CD8+ T cells. ME1 specific CD8+ T cells were negligible in all the other sets.

The mark [4] stands for this setting: Donor 1, starting material CD14-CD25- (Base Arm).
Setting [5] is: Donor 1, starting material CD14-CD25- (Frozen).
Where [6] appears, read: Donor 1, starting material PBMC (CD25−), IL-7 and IL-15.
Setting [7] is: Donor 2, starting material CD14-CD25- (Base Arm).
Setting [8] is: Donor 2, starting material CD14-CD25- (Frozen).
Where [9] appears, read: Donor 2, starting material PBMC (CD25−), IL-7 and IL-15.
[10] abbreviates: Donor 2, starting material PBMC (CD25−).

In the case of “ACTN4: previously identified neoantigen (PIN) short peptide; also encoded in RNA (FIASNGVKLV)”, the “fraction of antigen specific CD8+ T cells (multimer)” value in test [1] (Prot. 2 (CD25 depleted), day 26, confirmation) is on record as 0.095%; in test [1] (Prot. 2 (CD25 depleted), day 26, initial), 0.376%. Further, the “presentation of the epitope by HLA-A02:01 after RNA electroporation” value (shortened to “presentation of the epitope”) in test [2] was “expressed readily as dominant epitopes”. The “Hit Rate (%)” value in test [3] (setting [4]), in test [3] (setting [5]), in test [3] (setting [6]), in test [3] (setting [7]), in test [3] (setting [8]) and in test [3] (setting [9]) was 0% in each case.

Turning to “CDK4: CDK4 epitope encoded in the RNA (25 mer epitopes) construct (ACDPHSGHFV)”, the “presentation of the epitope” value in test [2] is on record as “expressed readily as dominant epitopes”. Besides, the “Hit Rate (%)” value in test [3] (setting [4]), in test [3] (setting [5]), in test [3] (setting [6]), in test [3] (setting [7]), in test [3] (setting [8]) and in test [3] (setting [9]) was 0% each time.

For “Gli3: Gli3 epitope encoded in the RNA (25 mer epitopes) construct (RLIPGIPTV)”, the “presentation of the epitope” value in test [2] is recorded as “expressed readily as dominant epitopes”. Besides, the “Hit Rate (%)” value in test [3] (setting [4]) came to 100%; in test [3] (setting [5]), 100%; in test [3] (setting [6]) it was 83%; in test [3] (setting [7]), 100%; in test [3] (setting [8]) it was 67%; in test [3] (setting [9]) it was 83%. Besides, the “Mean Frequency” value is on record as 0.98% in test [3] (setting [4]); 0.52% in test [3] (setting [5]); 6.09% in test [3] (Donor 1, starting material PBMC (CD25−)); 0.79% in test [3] (setting [7]); 0.12% in test [3] (setting [8]); 2.68% in test [3] (setting [10]). In test [3] (FIG. 61B), the “increase in multimer positive cells, RNA transfected versus peptide loaded PBMCs” value is given as “greater than 10 fold”.

For “ME-1: previously identified neoantigen (PIN) short peptide; also encoded in RNA (FLDEFMEGV)”, the “fraction of antigen specific CD8+ T cells (multimer)” value was determined as 0.927% in test [1] (Prot. 2 (bulk), day 19, confirmation); 4.15% in test [1] (Prot. 2 (bulk), day 19, initial); 2.34% in test [1] (Prot. 2 (bulk), day 26, confirmation); 12.6% in test [1] (Prot. 2 (bulk), day 26, initial). The “CD8+ T cells specific to the peptide” value in test [1] (protocol 2, after a long induction) is 12.6%. The “presentation of the epitope” value in test [2] is given as “expressed readily as dominant epitopes”. Further, the “Hit Rate (%)” value in test [3] (setting [4]) was determined as 0%; in test [3] (setting [5]), 0%; in test [3] (setting [6]), 0%; in test [3] (setting [7]), 83%; in test [3] (setting [8]), 0%; in test [3] (setting [9]) it was 67%. The “Mean Frequency” value in test [3] (setting [7]) came to 0.01%; in test [3] (setting [8]), 0.01%; in test [3] (setting [10]), 2.97%.
